Tests used:
[1] = for molar entropy: Small (less than 1 g) adiabatic calorimetry; for vapor or sublimation pressure: Transpiration method
[2] = Molar enthalpy of transition or fusion; conditions: Crystal; Adiabatic calorimetry

CC(C)(C)c1ccc(Oc2ccccc2)cc1 [4-tert-butylphenyl phenyl ether]
molar entropy [J/K/mol], [1], 101.33 kPa
Conditions	Crystal	Liquid
5 K	0.2278	–
10 K	1.746	–
15 K	5.404	–
20 K	10.73	–
25 K	17.29	–
30 K	24.28	–
35 K	31.51	–
40 K	38.91	–
45 K	46.23	–
50 K	53.46	–
60 K	67.76	–
70 K	81.81	–
80 K	95.45	–
90 K	108.59	–
100 K	121.31	–
110 K	133.7	–
120 K	145.84	–
130 K	157.73	–
140 K	169.45	–
150 K	180.92	–
160 K	192.23	–
170 K	203.29	–
180 K	214.26	–
190 K	225.07	–
200 K	235.72	–
210 K	246.36	–
220 K	256.83	–
230 K	267.23	–
240 K	277.54	–
250 K	287.85	–
260 K	298.16	–
270 K	308.47	–
280 K	318.69	–
290 K	328.92	–
298.15 K	337.23	–
300 K	339.15	–
310 K	349.29	–
320 K	359.35	–
327.84 K	367.17	434.26
330 K	–	436.76
340 K	–	448.48
350 K	–	460.04
360 K	–	471.51
370 K	–	482.82

Conditions	mass density [kg/m3]
[1], 298.15 K, 101.33 kPa, Crystal, Pycnometric method	997.5

[1]
Conditions	Triple point temperature [K]	vapor or sublimation pressure [kPa]
298.46 K, Crystal	–	4.8e-05
299.37 K, Crystal	–	5.3e-05
300.45 K, Crystal	–	6.1e-05
303.52 K, Crystal	–	9.5e-05
306.47 K, Crystal	–	0.000135
310.47 K, Crystal	–	0.000222
310.5 K, Crystal	–	0.000229
312.53 K, Crystal	–	0.000285
314.45 K, Crystal	–	0.000363
315.5 K, Crystal	–	0.000405
316.51 K, Crystal	–	0.000466
317.52 K, Crystal	–	0.00055
318.5 K, Crystal	–	0.000621
319.52 K, Crystal	–	0.000689
320.55 K, Crystal	–	0.000755
321.53 K, Crystal	–	0.000855
322.52 K, Crystal	–	0.00095
323.45 K, Crystal	–	0.001031
323.55 K, Crystal	–	0.001042
324.53 K, Crystal	–	0.001212
Crystal, Adiabatic calorimetry	327.84	–

Conditions	Molar enthalpy of transition or fusion [kcal/mol]
[2]	5.255

From the NIST ThermoML archive (doi:10.1016/j.jct.2015.03.019)
